Assay results: PubChem BioAssay (NCI)
Values joined by “and” are separate entries in the source; they are usually repeats but may differ in a detail not shown here. Identical values can stand only once.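 A five-concentration, 48-hour dose response in 96-well plates underlies each endpoint, interpolated linearly between surrounding concentrations. At the GI50, growth is halved. TGI: total growth inhibition.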

What was measured:
Assay in all cases: NCI anticancer screen, dose series, 48 h
UO-31 renal = tested on: UO-31 renal
OVCAR-3 ovarian = tested on: OVCAR-3 ovarian
HS 578T breast = tested on: HS 578T breast
RPMI-8226 leukemia = tested on: RPMI-8226 leukemia
OVCAR-4 ovarian = tested on: OVCAR-4 ovarian
CCRF-CEM leukemia = tested on: CCRF-CEM leukemia
OVCAR-8 ovarian = tested on: OVCAR-8 ovarian
SF-295 CNS = tested on: SF-295 CNS
CAKI-1 renal = tested on: CAKI-1 renal
HL-60(TB) leukemia = tested on: HL-60(TB) leukemia

SMILES | GI50 (UO-31 renal) | TGI (UO-31 renal) | GI50 (OVCAR-3 ovarian) | TGI (OVCAR-3 ovarian) | GI50 (HS 578T breast) | TGI (HS 578T breast) | GI50 (RPMI-8226 leukemia) | TGI (RPMI-8226 leukemia) | GI50 (OVCAR-4 ovarian) | TGI (OVCAR-4 ovarian) | GI50 (CCRF-CEM leukemia) | TGI (CCRF-CEM leukemia) | GI50 (OVCAR-8 ovarian) | TGI (OVCAR-8 ovarian) | GI50 (SF-295 CNS) | TGI (SF-295 CNS) | GI50 (CAKI-1 renal) | TGI (CAKI-1 renal) | GI50 (HL-60(TB) leukemia) | TGI (HL-60(TB) leukemia)
CCn1cc(-c2ccnc3[nH]c(-c4cccc(CN(C)C)c4)cc23)c(-c2ccc(NC(=O)N(C)C)cc2)n1 | 2.22 µM and 1.99 µM | 9.98 µM and > 10 µM | 3.82 µM and 3.15 µM | 23.9 µM and > 10 µM | 1.52 µM and 1.2 µM | 9.99 µM and 6.9 µM | 1.69 µM and 1.32 µM | 15.6 µM and > 10 µM | 0.479 µM and 3.41 µM | 37.1 µM and > 10 µM | < 0.01 µM | 51.6 µM | 3.33 µM and 3.61 µM | 23 µM and > 10 µM | 0.484 µM and 0.408 µM | 11.7 µM and > 10 µM | 3.36 µM and 1.17 µM | 18.9 µM and > 10 µM | 1.46 µM and 0.863 µM | 8.3 µM and > 10 µM
CCN(Cc1c(F)cccc1OC)c1ccc(CO)c(Cl)c1 | 14.9 µM | 48.8 µM | 0.253 µM | 1.81 µM | 19.1 µM | 53.4 µM | 1.44 µM | 23.1 µM | 0.216 µM | 13 µM | 20.9 µM | > 79.1 µM | 12 µM | 50.2 µM | 0.0707 µM | 1.88 µM | 3.05 µM | 35.5 µM | 13.2 µM | 43.3 µM
CCOC(=O)c1c(C)c2c(n1Cc1ccccc1)CSCC2=O | 13.5 µM | > 100 µM | 17.5 µM | 46.2 µM | 10.8 µM | 53.3 µM | 14.4 µM | > 100 µM | 17.4 µM | > 100 µM | 29.9 µM | > 100 µM | 27.6 µM | > 100 µM | 18 µM | 49.5 µM | 11 µM | 52.2 µM | 18.8 µM | 54.1 µM
C[C@H](CCOc1cccc(CC(=O)O)c1)N(Cc1cccc(C(F)(F)F)c1Cl)CC(c1ccccc1)c1ccccc1 | 2.36 µM | 14.7 µM | 4.77 µM | 15.9 µM | 3.79 µM | 20.7 µM | 3.48 µM | 22.1 µM | 5.26 µM | 21.9 µM | 3.69 µM | 20.1 µM | 5.83 µM | 25.6 µM | 4.44 µM | 18.6 µM | 5.79 µM | 18.2 µM | 5.58 µM | 24.6 µM
CC[C@]1(O)C[C@H]2CN(CCc3c([nH]c4ccccc34)C(C(=O)OC)(c3cc4c(cc3OC)N(C)[C@H]3[C@@](O)(C(=O)OC)[C@H](OC(C)=O)[C@]5(CC)[C@@H]6C[C@@H]6CN6CC[C@]43[C@@H]65)C2)C1 (some centres undefined) | 0.076 µM | 7.66 µM | 0.00184 µM | 0.00945 µM | 0.00331 µM | – | 0.00469 µM | 2.07 µM | 0.0266 µM | > 7.51 µM | 0.00456 µM | > 12.9 µM | 0.00688 µM | 0.168 µM | 0.00233 µM | 0.393 µM | 0.0345 µM | 6.17 µM | 0.0034 µM | 0.0108 µM
CCN(CCNS(C)(=O)=O)c1ccc(N)c(C)c1 | 2.58 µM | 7.67 µM | 3.15 µM | 8.58 µM | 32.9 µM | > 100 µM | 3.16 µM | 8.32 µM | 6.39 µM | 19.4 µM | 2.29 µM | 7.29 µM | 3.94 µM | 15.2 µM | 16.7 µM | 34.3 µM | 2.54 µM | 6.78 µM | 7.01 µM | 25.7 µM
Cc1ccc2c(c1)c1ccc3c(c1n2C)C(=O)C=CC3=O | – | 3.17 µM | – | 4.53 µM | – | 8.66 µM | – | 4.2 µM | – | > 5.56 µM | – | 0.62 µM | – | 6.01 µM | – | > 10 µM | – | 4.17 µM | – | 1.69 µM
NNc1ncnc2nc[nH]c12 | 2.48 µM | > 100 µM | 3.56 µM | 26.9 µM | 7.71 µM | > 70 µM | 2.09 µM | 17.1 µM | 3.79 µM | > 100 µM | 2.97 µM | > 100 µM | 5.09 µM | > 100 µM | 3.95 µM | > 72.6 µM | 0.793 µM | 18.3 µM | 3.53 µM | 21.5 µM
